Values of other authors in US20180185509A1, “AMATOXIN-CONJUGATES WITH IMPROVED LINKAGES” (Heidelberg Pharma GmbH, priority 2011, published 2018).

Target: RNA-polymerase II (Homo sapiens, UniProt P24928)
Details: read-out: KD of the complex between amanitin and RNA-polymerase II

For amanitin, the Kd is given as 3 nM.
